The values below come from article PMC11017252, “Copper(II) Complexes with 2,2′:6′,2″-Terpyridine Derivatives Displaying Dimeric Dichloro−μ–Bridged Crystal Structure: Biological Activities from 2D and 3D Tumor Spheroids to In Vivo Models” (Journal of Medicinal Chemistry, 2024).

The structures appear in SMILES notation. Read-outs that look alike come from different tables or passages of the source.

Data set [1] relates to HCT116DoxR (Dox-resistant colorectal carcinoma cell line). Kind of data set: MTS cell viability assay, 2D culture, HCT116DoxR. Particulars: read-out: IC50 (μM) HCT116DoxR, 48 h of exposure.
Procedure: (§1) The in vitro cytotoxic potential of Cu(II) complexes in tumor and healthy cells was assessed using the MTS assay, a colorimetric method that allows the quantification of viable cells in culture.[46]
In this regard, cell viability was performed for each of the ligands on HCT116DoxR and fibroblasts.
Cell culture and maintenance
(§2) The cancer cell lines HCT116 (colorectal carcinoma) and A2780 (ovarian carcinoma) were obtained
(§3) from the American Type Culture Collection (ATCC®, Manassas, VA, USA), as well as the normal
(§4) Apart from the A2780 cell line, which was cultured in Roswell Park Memorial Institute (RPMI)
(§5) medium, all cells were cultured in Dulbecco’s modified Eagle medium (DMEM). Both media were
(§6) supplemented with 10% (v/v) fetal bovine serum (FBS) and 1% (v/v) of a Pen/Strep
(§7) (Penicillin/Streptomycin) solution. To maintain the resistant phenotype of the HCT116DoxR cell line,
(§8) the medium was additionally supplemented with 3.6 μM Dox4. All media and supplements were
(§9) purchased from Thermo Fischer Scientific (Waltham, MA, USA).
(§10) Cells were maintained in 25 cm2 T-flasks (T25) in a humidified atmosphere at 37 °C and 5% (v/v) CO
(§11) (SANYO CO2 Incubator, Electric Biomedical Co., Osaka, Japan).
(§12) The effect of Cu(II) complexes on cell viability was studied in HCT116, HCT116DoxR, and A2780
(§13) cancer cell lines and in normal human primary fibroblasts. Cells were seeded in a density of 0.75×105
(§14) cells/mL into 96-well plates and incubated in a humidified atmosphere at 37 °C and 5% (v/v) CO2 for
(§15) 24 h. After incubation, complexes were weighed, immediately solubilized in 100% (v/v) DMSO and
(§16) diluted for the final concentration with cell culture medium. The medium in each well was replaced by
(§17) a solution of fresh medium containing each Cu(II) complex (concentrations ranging from 0.01 μM to
(§18) as negative and positive controls, respectively.
(§19) Following a second incubation period of 48 h in the same conditions, the supernatant of each well was
(§20) replaced by a solution containing MTS reagent (3-(4,5-dimethylthiazol-2-yl)-5-(3-
(§21) carboxymethoxyphenyl)-2-(4-sulfophenyl)-2H-tetrazolium) provided by the CellTiter 96® AQueous
(§22) Non-Radioactive Cell Proliferation Assay Kit (Promega, Madison, WI, EUA) for a 30 minutes
(§23) incubation. The percentage of viable cells was indirectly determined by the spectrophotometric
(§24) quantification at 490 nm in a microplate reader, Tecan Infinite M200 (Tecan, Männedorf, Switzerland)
(§25) of formazan production, resultant from the reduction of the MTS reagent by mitochondrial
(§26) dehydrogenases. Since these enzymes are only active in viable cells, the absorbance value measured is
(§27) directly proportional to the percentage of viable cells in culture5.
In data set [2] the test system is normal human primary dermal fibroblasts. Set-up: method as in PMID 29688241. Particulars: 48 h; previously obtained; cited from earlier work.
Data set [3] has as its system HCT116 (colorectal carcinoma cell line). Kind of data set: MTS cell viability assay, 2D culture, HCT116. In kind it is cell-based, human. The conditions noted are these: Homo sapiens, HCT-116, 48 h of exposure.
Procedure: as §1
Cell culture and maintenance
as §2, §3, §4, §5, §6, §7, §8, §9, §10, §11, §12, §13, §14, §15, §16, §17, §18, §19, §20, §21, §22, §23, §24, §25, §26, §27
By analysing the cell viability as a function of log10(concentration) using Prism 8 (GraphPad
in cell viability) of each complex in the respective cell line at 48 h. The selective index (SI) for each
complex was also determined by dividing the IC50 of human fibroblasts by the respective IC50 in each
cancer cell line (allowing us to understand how much active a complex is in tumor versus normal cell).
Data set [4] concerns A2780 (ovarian carcinoma cell line). Kind of data set: MTS cell viability assay, 2D culture, A2780. Particulars: Homo sapiens, A2780, 48 h of exposure. In kind it is cell-based, human. On the technique in general: Tetrazolium assays rely on reduction of a dye to a coloured formazan, in cell work by metabolically active cells.
Data set [5] concerns HCT116DoxR cells. Kind of data set: Annexin V-FITC/PI apoptosis assay by flow cytometry. Particulars: 48 h, complexes at IC50, Dox 6 μM, cisplatin 5 μM. (A flow cytometer gives signals particle by particle.)
Procedure: To evaluate the cell death mechanism involved in the cytotoxic effect of the selected complexes, a double-staining with Annexin V-FITC and PI was performed. […] The use of Annexin V conjugated with the fluorophore FITC allows the quantification of this interaction and subsequent identification of cells in apoptosis by flow cytometry. Furthermore, PI is a fluorophore that can intercalate with DNA and that can only enter the cell when the membrane is either compromised or ruptured, making it possible to identify cells undergoing late apoptosis and necrosis. Therefore, the double staining makes it possible to distinguish between viable cells (FITC^–; IP^–), those undergoing initial apoptosis (FITC^+; IP^–), those undergoing late apoptosis (FITC^+; IP^+), and those undergoing necrosis (FITC^–; IP^+).[55],[58]
Evaluation of apoptosis induction in HCT116DoxR cell line by flow cytometry The induction of apoptosis in HCT116DoxR cell line was evaluated by flow cytometry, using the
Annexin V-FITC Apoptosis Detection Kit (Thermo Fisher Scientific, Waltham, MA, USA). Cells
were seeded in 6-well plates at a cell density of 1×10^5 cells/mL and incubated for 24 h. Afterwards,
culture medium was replaced by medium with different Cu(II) complexes at their IC50 concentrations.
After 48 h of incubation, cells were washed with PBS 1x, detached from each well with TrypLETM
Express and washed again with PBS 1x. Cells were then resuspended in 1x annexin-binding buffer and
incubated at rt for 15 min with Annexin V-FITC and 100 μg/mL PI.
All samples were analysed by an Attune® Acoustic Focusing Flow Cytometer (Thermo Fischer
Scientific, Waltham, MA, USA) and the results were processed with Attune® Cytometric software
The test system of data set [6] is HCT116DoxR (Dox-resistant colorectal carcinoma cell line). The conditions noted are these: cited from earlier work.
Data set [7] relates to HCT116DoxR cells. Kind of data set: Cell cycle progression (PI, flow cytometry). Particulars: Dox 6 μM, 9–24 h.
Source text: Therefore, we have assessed the cytostatic potential of complexes 2, 3, 5, and 7, and their ability to interfere with the progression of the cell cycle using the fluorescent marker PI. Since this marker can intercalate with DNA, the measurement of the fluorescence emitted by flow cytometry makes it possible to assess the DNA content at each stage of the cell cycle (G0/G1, S, and G2/M).[67] To ensure that all the cells were in the same phase before their exposure to the complexes, a double block was carried out with thymidine, a DNA synthesis inhibitor.[67]
(§28) HCT116DoxR cell line was seeded in 6-well plates in a density of 1×10^5 cells/mL and incubated for
(§29) 24 h. Afterwards, the culture medium was replaced by medium with IC50 concentrations of different
HCT116DoxR cell line was seeded in 6-well plates in a density of 1×10^5 cells/mL, incubated for 8 h in
a humidified atmosphere at 37 °C and 5% (v/v) CO2, and later synchronized in early S-phase with a 2
mM thymidine solution (Merck, Germany) for a 16 h period. Later, medium with thymidine was
replaced by fresh media and, after 8 h a second block with thymidine was performed in the same
concentrations of Cu(II) complexes. 0.1% (v/v) DMSO was used as the vehicle control while 5 μM
After treatment, cells were incubated for 9, 12,
Data set [8] concerns HCT116DoxR cells. Kind of data set: Cellular senescence (β-galactosidase, flow cytometry). Particulars: 48 h; complexes at IC50, cisplatin 5 μM, Dox 6 μM.
Procedure: Given the ability of the Cu(II) complexes to interfere with the progression of the cell cycle, the senescence of HCT116DoxR cells was analyzed after 48 h of exposure to their IC50 concentrations. […] To study the senescence-inducing capacity of the complexes, the activity of β-galactosidase, whose increased expression is associated with senescence, was quantified by flow cytometry (Figure 16).[73]
as §28, §29
(TBHP) were used as controls. After an incubation period of 48 h, cells were washed with PBS 1x, detached with TrypLETM Express and washed again with PBS 1x.

The IC50 is the concentration that gives 50% inhibition. For the compound `COc1ccc(-c2cc(-c3ccccn3)nc(-c3ccccn3)c2)c2ccccc12` [L3], the IC50 in data set [1] is 0.2 ± 0.02 µM; in data set [2], 0.95 ± 0.08 µM.

With `COc1cccc2c1C(=O)c1c(O)c3c(c(O)c1C2=O)C[C@@](O)(C(=O)CO)C[C@@H]3O[C@H]1C[C@H](N)[C@H](O)[C@H](C)O1` [Dox, doxorubicin, reference compound], the IC50 in data set [3] was 0.5 ± 0.1 µM. In addition, 0.1 ± 0.04 µM corresponded to half-maximal inhibition in data set [4] (IC50). In data set [5], the “cells (%) early apoptosis” value came to 16.6 ± 5.5%, the “cells (%) late apoptosis” value was determined as 13.9 ± 1.9%, the “cells (%) necrosis” value is on record as 9.8 ± 4.0% and the “cells (%) viable” value worked out at 59.8 ± 3.8%. Besides, the “percentage of apoptosis (early + late)” value in data set [5] is listed as ~31%. Besides, the viability at 6 µM in data set [5] (Homo sapiens, read-out: cells (%) viable, 48 h) was ~60%. Also, the IC50 in data set [6] is > 6 µM. Also, the “cell cycle arrest in the G2/M phase” value in data set [7] is “not verified”. In addition, the “induction of cellular senescence compared to DMSO control” value in data set [8] is recorded as “did not induce an increase in cellular senescence”.
